Measurements published in patent US4064252A, “Substituted N-(carboxymethyl)-3-aminopropan-2-ol derivatives” (Nippon Shinyaku Co., Ltd., priority 1975, dated 1977).
Where two headings read alike, the source gives them in different places.

What was measured:
serum triglyceride = experiment: Blood lipid lowering in 8 week-old male rats having normal serum lipid content: serum triglyceride; type: in vivo, rat; conditions: 3.5 days, vs non-treated control; for inhibition in vivo at 10 mg/kg/day / inhibition in vivo at 20 mg/kg/day / inhibition in vivo at 100 mg/kg/day: Rattus norvegicus, po, 84 h, read-out: % decrease of serum triglyceride; for inhibition in vivo at 10 mg/kg/day: 10 mg/kg/day oral
Method: (§1) 1. Blood lipid lowering activities in 8 week-old male rats having normal serum lipid content.
(§2) The values shown in Table 1 indicate the concentration changes of serum cholesterol and serum triglycride after the treatment with the shown various doses/day for 3.5 days. The mentioned compounds were orally administered to rat's groups consisting of 10 animals through a stomach tube twice a day. Blood was usually withdrawn 4 hours after the last administration. Serum cholesterol concentration was determined by the method of Levine and Zak, and triglyceride by the method of Kassler and Laderer by means of autoanalyzer. In all examples shown in Table 1, % decrease of treated groups are then to the non-treated reference group (control group), where the value of control group is represented as 100%.
(§3) The values in Table 5 indicate the concentration changes of serum cholesterol and the triglyceride after the treatment with the shown various doses per day for 3.5 days. These compounds were orally administered to rat groups consisting of 10 animals through a stomach tube twice a day. Blood was usually withdrawn 4 hours after the last administration. Serum cholesterol concentration was determined by the method of Levine and Zak, and serum triglyceride by the method of Kessler and Lederer by means of autoanalyzer. In all examples shown in Table 1, % decrease of the treated groups are to the non-treated control group where the value of control group is represented as 100%. […] The following examples are given to illustrate the representative embodiment of this invention, but this invention is not limited to these examples.

serum cholesterol = experiment: Blood lipid lowering in 8 week-old male rats having normal serum lipid content: serum cholesterol; type: in vivo; conditions: Rattus norvegicus, po, 84 h, 3.5 days, vs non-treated control, read-out: % decrease of serum cholesterol; for inhibition in vivo at 10 mg/kg/day: 10 mg/kg/day oral; for inhibition in vivo at 20 mg/kg/day: 20 mg/kg/day oral; for inhibition in vivo at 100 mg/kg/day: 100 mg/kg/day oral
Method: as §1, §2, §3

blood triglyceride = experiment: Blood triglyceride lowering in carbohydrate (fructose) induced hypertriglyceridemia of fructose loaded 9 week-old male rats; type: in vivo, rat; conditions: 3 days, vs fructose loaded control
Method: 2. Blood triglyceride lowering activities in the carbohydrate induced hypertriglyceridemia of fructose loaded 9 week-old rats.
Compounds shown in Table 2 were orally administered to the rat groups consisting of 10 animals for 3 days. Drinking of 10% fructose solution continued for 48 hours prior to sacrifice.
Fasting for 18 hours after the last administration, blood was withdrawn. In all examples shown in Table 2, % inhibitions of the treated groups are to the fructose loaded control group. The changed value of triglyoride content before and after the fructose load in the control group is represented as 100%.

blood cholesterol = experiment: Blood cholesterol lowering in thiouracil induced hypercholesterolemia of thiouracil loaded 9 week-old male rats; type: in vivo, rat; conditions: 4 days, vs thiouracil loaded control
Method: 3. Blood cholesterol lowering activities in the thiouracil induced hypercholesterolemia of thiouracil loaded 9 week-old male rats.
The compounds illustrated in Table 3 were orally administered for 4 days from the 4th day to rats given 0.1% thiouracil solution for 3 days as the pretreatment. Fasting for 18 hours after the last administration, blood was withdrawn. In all examples shown in Table 3, % inhibition of treated groups are to the thiouracil loaded control group, in which the changed value of cholesterol before and after the thiouracil load is represented as 100%.

SMILES: O=C(O)CN(CC(O)COc1ccc(Cl)cc1)c1ccccc1 (stereo not shown) [Compound 2]
- inhibition in vivo at 10 mg/kg/day (serum triglyceride; Table 1): 53.6%
- % decrease of serum triglyceride (serum triglyceride; Table 1, 20 mg/kg/day oral, 20 mg/kg/day): 73.2%
- % decrease of serum triglyceride (serum triglyceride; Table 1, 100 mg/kg/day oral, 100 mg/kg/day): 72.0%
- inhibition in vivo at 10 mg/kg/day (serum cholesterol; Table 1): 15.5%
- inhibition in vivo at 20 mg/kg/day (serum cholesterol; Table 1): 28.8%
- inhibition in vivo at 100 mg/kg/day (serum cholesterol; Table 1): 33.5%

SMILES: COC(=O)CN(CC(O)COc1ccc(Cl)cc1)c1ccccc1 (stereo not shown) [Compound 4]
- inhibition in vivo at 10 mg/kg/day (serum triglyceride; Table 1): 36.5%
- inhibition in vivo at 20 mg/kg/day (serum triglyceride; Table 1, 20 mg/kg/day oral): 54.4%
- inhibition in vivo at 100 mg/kg/day (serum triglyceride; Table 1, 100 mg/kg/day oral): 59%
- inhibition in vivo at 10 mg/kg/day (serum cholesterol; Table 1): 22.9%
- inhibition in vivo at 20 mg/kg/day (serum cholesterol; Table 1): 23.4%
- inhibition in vivo at 100 mg/kg/day (serum cholesterol; Table 1): 39.1%
- inhibition ratio (hypotriglyceridemic effect) (blood triglyceride; 10 mg/kg/day oral): 46.5%
- inhibition ratio (hypotriglyceridemic effect) (blood triglyceride; 30 mg/kg/day oral): 69.9%
- inhibition ratio (hypotriglyceridemic effect) (blood triglyceride; 100 mg/kg/day oral): 93.0%
- inhibition ratio (hypocholesterolemic effect) (blood cholesterol; 10 mg/kg/day oral): 51.9%
- inhibition ratio (hypocholesterolemic effect) (blood cholesterol; 30 mg/kg/day oral): 57.9%
- inhibition ratio (hypocholesterolemic effect) (blood cholesterol; 100 mg/kg/day oral): 85.5%

SMILES: CCOC(=O)CN(CC(O)COc1ccc(Cl)cc1)c1ccccc1 (stereo not shown) [Compound 5]
- inhibition ratio (hypocholesterolemic effect) (blood cholesterol; 10 mg/kg/day oral): 49.9%
- inhibition ratio (hypocholesterolemic effect) (blood cholesterol; 30 mg/kg/day oral): 69.2%
- inhibition ratio (hypocholesterolemic effect) (blood cholesterol; 100 mg/kg/day oral): 100.7%

SMILES: CCCOC(=O)CN(CC(O)COc1ccc(Cl)cc1)c1ccccc1 (stereo not shown) [Compound 6]
- inhibition in vivo at 20 mg/kg/day (serum triglyceride; Table 1, 20 mg/kg/day oral): 49.6%
- inhibition in vivo at 100 mg/kg/day (serum triglyceride; Table 1, 100 mg/kg/day oral): 72.4%
- inhibition in vivo at 20 mg/kg/day (serum cholesterol; Table 1): 34.7%
- inhibition in vivo at 100 mg/kg/day (serum cholesterol; Table 1): 41.2%
- inhibition ratio (hypotriglyceridemic effect) (blood triglyceride; 10 mg/kg/day oral): 55.9%
- inhibition ratio (hypotriglyceridemic effect) (blood triglyceride; 30 mg/kg/day oral): 67.6%
- inhibition ratio (hypotriglyceridemic effect) (blood triglyceride; 100 mg/kg/day oral): 85.7%
- inhibition ratio (hypocholesterolemic effect) (blood cholesterol; 10 mg/kg/day oral): 58.4%
- inhibition ratio (hypocholesterolemic effect) (blood cholesterol; 30 mg/kg/day oral): 70.1%
- inhibition ratio (hypocholesterolemic effect) (blood cholesterol; 100 mg/kg/day oral): 94.9%

SMILES: CCCCOC(=O)CN(CC(O)COc1ccc(Cl)cc1)c1ccccc1 (stereo not shown) [Compound 10]
- inhibition ratio (hypotriglyceridemic effect) (blood triglyceride; 10 mg/kg/day oral): 48.5%
- inhibition ratio (hypotriglyceridemic effect) (blood triglyceride; 30 mg/kg/day oral): 61.5%
- inhibition ratio (hypotriglyceridemic effect) (blood triglyceride; 100 mg/kg/day oral): 63.3%
- inhibition ratio (hypocholesterolemic effect) (blood cholesterol; 10 mg/kg/day oral): 52.6%
- inhibition ratio (hypocholesterolemic effect) (blood cholesterol; 30 mg/kg/day oral): 87.4%
- inhibition ratio (hypocholesterolemic effect) (blood cholesterol; 100 mg/kg/day oral): 94.9%

SMILES: COC(=O)CN(CC(O)COc1ccccc1Cl)c1ccccc1 (stereo not shown) [Compound 11]
- inhibition in vivo at 20 mg/kg/day (serum triglyceride; Table 1, 20 mg/kg/day oral): 65.4%
- inhibition in vivo at 100 mg/kg/day (serum triglyceride; Table 1, 100 mg/kg/day oral): 66%
- inhibition in vivo at 20 mg/kg/day (serum cholesterol; Table 1): 21.5%
- inhibition in vivo at 100 mg/kg/day (serum cholesterol; Table 1): 30.3%

SMILES: COC(=O)CN(CC(O)COc1ccc(C(C)(C)C)cc1)c1ccccc1 (stereo not shown) [Compound 18]
- inhibition in vivo at 20 mg/kg/day (serum triglyceride; Table 1, 20 mg/kg/day oral): 54.5%
- inhibition in vivo at 100 mg/kg/day (serum triglyceride; Table 1, 100 mg/kg/day oral): 59.3%
- inhibition in vivo at 20 mg/kg/day (serum cholesterol; Table 1): 12.4%
- inhibition in vivo at 100 mg/kg/day (serum cholesterol; Table 1): 14.9%

SMILES: NC(=O)CN(CC(O)COc1ccc(Cl)cc1)c1ccccc1 (stereo not shown) [Compound 32]
- inhibition in vivo at 100 mg/kg/day (serum triglyceride; Table 1, 100 mg/kg/day oral): 56.6%
- inhibition in vivo at 100 mg/kg/day (serum cholesterol; Table 1): 29.6%

SMILES: CCN(CC)C(=O)CN(CC(O)COc1ccc(Cl)cc1)c1ccccc1 (stereo not shown) [Compound 35]
- inhibition in vivo at 100 mg/kg/day (serum triglyceride; Table 1, 100 mg/kg/day oral): 52.7%
- inhibition in vivo at 100 mg/kg/day (serum cholesterol; Table 1): 19.8%

SMILES: O=C(CN(CC(O)COc1ccc(Cl)cc1)c1ccccc1)NCc1ccccc1 (stereo not shown) [Compound 41]
- inhibition in vivo at 100 mg/kg/day (serum triglyceride; Table 1, 100 mg/kg/day oral): 53.2%
- inhibition in vivo at 100 mg/kg/day (serum cholesterol; Table 1): 12.3%

SMILES: COC(=O)CN(CC(COc1ccc(Cl)cc1)OC(C)=O)c1ccccc1 (stereo not shown) [Compound 50, 2-acetoxy-1-(p-chlorophenoxy)-3-(N-carbomethoxymethyl-N-phenylamino) propane]
- inhibition in vivo at 20 mg/kg/day (serum triglyceride; Table 5, 20 mg/kg/day oral): 65.4%
- inhibition in vivo at 100 mg/kg/day (serum triglyceride; Table 5, 100 mg/kg/day oral): 66%
- inhibition in vivo at 20 mg/kg/day (serum cholesterol; Table 5): 21.5%
- inhibition in vivo at 100 mg/kg/day (serum cholesterol; Table 5): 30.3%

SMILES: CCOC(=O)CN(CC(COc1ccc(Cl)cc1)OC(=O)c1cccnc1)c1ccccc1 (stereo not shown) [Compound 57]
- inhibition in vivo at 20 mg/kg/day (serum triglyceride; Table 5, 20 mg/kg/day oral): 54.5%
- inhibition in vivo at 100 mg/kg/day (serum triglyceride; Table 5, 100 mg/kg/day oral): 59.3%
- inhibition in vivo at 20 mg/kg/day (serum cholesterol; Table 5): 12.4%
- inhibition in vivo at 100 mg/kg/day (serum cholesterol; Table 5): 14.9%

SMILES: N[C@@H](Cc1cc(I)c(Oc2cc(I)c(O)c(I)c2)c(I)c1)C(=O)O [L-thyroxine, reference compound]
- inhibition ratio (hypocholesterolemic effect) (blood cholesterol; 3 mg/kg/day oral): 54.8%

SMILES: CCOC(=O)C(C)(C)Oc1ccc(Cl)cc1 [clofibrate, reference compound]
- inhibition in vivo at 10 mg/kg/day (serum triglyceride; Table 1): 6.2%
- inhibition in vivo at 20 mg/kg/day (serum triglyceride; Table 1, 20 mg/kg/day oral): 36.3%
- inhibition in vivo at 100 mg/kg/day (serum triglyceride; Table 1, 100 mg/kg/day oral): 51.7%
- inhibition in vivo at 20 mg/kg/day (serum triglyceride; Table 5, 20 mg/kg/day oral): 36.3%
- inhibition in vivo at 100 mg/kg/day (serum triglyceride; Table 5, 100 mg/kg/day oral): 51.7%
- inhibition in vivo at 10 mg/kg/day (serum cholesterol; Table 1): 5.8%
- inhibition in vivo at 20 mg/kg/day (serum cholesterol; Table 1): 12.6%
- inhibition in vivo at 100 mg/kg/day (serum cholesterol; Table 1): 37%
- inhibition in vivo at 20 mg/kg/day (serum cholesterol; Table 5): 12.6%
- inhibition in vivo at 100 mg/kg/day (serum cholesterol; Table 5): 37%
- inhibition ratio (hypotriglyceridemic effect) (blood triglyceride; 10 mg/kg/day oral): -16.6%
- inhibition ratio (hypotriglyceridemic effect) (blood triglyceride; 30 mg/kg/day oral): -2.3%
- inhibition ratio (hypotriglyceridemic effect) (blood triglyceride; 100 mg/kg/day oral): 23.2%
